Test results from PubChem BioAssay AID1918934 (Molecular Pharmacology Branch, DTP, NCI, 2023).

Test system: 292921-168-R-J2-PDC complex spheroid viability
Assay: Anticancer human tumor 292921-168-R-J2-PDC patient-derived pancreatic carcinoma cell line growth inhibition
Details: for IC50: curve of first compound; for viability, T/C: stronger effect = lower value
How it was run: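 Multicellular complex spheroids of tumor cells with human endothelial cells (HUVEC) and mesenchymal stem cells; the LSD1 inhibitor iadademstat was combined with standard-of-care or investigational agents. Top concentration at or near clinical Cmax, half-log dilutions; final DMSO ≤0.25%.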

[1] = second compound 0.1 µM, first compound 0.0316 µM
[2] = second compound 0.1 µM, first compound 0.1 µM
[3] = second compound 0.1 µM, first compound 0.316 µM
[4] = second compound 0.1 µM, first compound 1 µM
[5] = second compound 0.316 µM, first compound 0.0316 µM
[6] = second compound 0.316 µM, first compound 0.1 µM
[7] = second compound 0.316 µM, first compound 0.316 µM
[8] = second compound 0.316 µM, first compound 1 µM
[9] = second compound 1 µM, first compound 0.0316 µM
[10] = second compound 1 µM, first compound 0.1 µM
[11] = second compound 1 µM, first compound 0.316 µM
[12] = second compound 1 µM, first compound 1 µM
[13] = second compound 3.16 µM, first compound 0.0316 µM
[14] = second compound 3.16 µM, first compound 0.1 µM
[15] = second compound 3.16 µM, first compound 0.316 µM
[16] = second compound 3.16 µM, first compound 1 µM
[17] = second compound 10 µM, first compound 0.0316 µM
[18] = second compound 10 µM, first compound 0.1 µM
[19] = second compound 10 µM, first compound 0.316 µM
[20] = second compound 10 µM, first compound 1 µM
[21] = second compound 0.1 µM, first compound 0.00949 µM
[22] = second compound 0.1 µM, first compound 0.03 µM
[23] = second compound 0.1 µM, first compound 0.0949 µM
[24] = second compound 0.1 µM, first compound 0.3 µM
[25] = second compound 0.1 µM, first compound 0.949 µM
[26] = second compound 0.1 µM, first compound 3 µM
[27] = second compound 0.316 µM, first compound 0.00949 µM
[28] = second compound 0.316 µM, first compound 0.03 µM
[29] = second compound 0.316 µM, first compound 0.0949 µM
[30] = second compound 0.316 µM, first compound 0.3 µM
[31] = second compound 0.316 µM, first compound 0.949 µM
[32] = second compound 0.316 µM, first compound 3 µM
[33] = second compound 1 µM, first compound 0.00949 µM
[34] = second compound 1 µM, first compound 0.03 µM
[35] = second compound 1 µM, first compound 0.0949 µM
[36] = second compound 1 µM, first compound 0.3 µM
[37] = second compound 1 µM, first compound 0.949 µM
[38] = second compound 1 µM, first compound 3 µM
[39] = second compound 3.16 µM, first compound 0.00949 µM
[40] = second compound 3.16 µM, first compound 0.03 µM
[41] = second compound 3.16 µM, first compound 0.0949 µM
[42] = second compound 3.16 µM, first compound 0.3 µM
[43] = second compound 3.16 µM, first compound 0.949 µM
[44] = second compound 3.16 µM, first compound 3 µM
[45] = second compound 10 µM, first compound 0.00949 µM
[46] = second compound 10 µM, first compound 0.03 µM
[47] = second compound 10 µM, first compound 0.0949 µM
[48] = second compound 10 µM, first compound 0.3 µM
[49] = second compound 10 µM, first compound 0.949 µM
[50] = second compound 10 µM, first compound 3 µM
[51] = second compound 0.1 µM, first compound 0.00316 µM
[52] = second compound 0.1 µM, first compound 0.01 µM
[53] = second compound 0.316 µM, first compound 0.00316 µM
[54] = second compound 0.316 µM, first compound 0.01 µM
[55] = second compound 1 µM, first compound 0.00316 µM
[56] = second compound 1 µM, first compound 0.01 µM
[57] = second compound 3.16 µM, first compound 0.00316 µM
[58] = second compound 3.16 µM, first compound 0.01 µM
[59] = second compound 10 µM, first compound 0.00316 µM
[60] = second compound 10 µM, first compound 0.01 µM
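Also: seven day compound exposure before luminescent viability read.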
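For viability, T/C in this document: 100% = DMSO vehicle control wells.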

SMILES: CC1(C)CCC(CN2CCN(c3ccc(C(=O)NS(=O)(=O)c4ccc(NCC5CCOCC5)c([N+](=O)[O-])c4)c(Oc4cnc5[nH]ccc5c4)c3)CC2)=C(c2ccc(Cl)cc2)C1 + NC1CC1c1ccc(-c2cccc(O)c2)cc1
- IC50 (second compound 0.1 µM): 1860 nM
- IC50 (second compound 0.316 µM): 1750 nM
- IC50 (second compound 1 µM): 1750 nM
- IC50 (second compound 3.16 µM): 1390 nM
- IC50 (second compound 10 µM): 958 nM
- viability, T/C [1]: 75.5%
- viability, T/C [2]: 92.6%
- viability, T/C [3]: 81.9%
- viability, T/C [4]: 82.8%
- viability, T/C (second compound 0.1 µM, first compound 3.16 µM): 22.1%
- viability, T/C (second compound 0.1 µM, first compound 10 µM): 0.22%
- viability, T/C [5]: 72.5%
- viability, T/C [6]: 79.7%
- viability, T/C [7]: 74.5%
- viability, T/C [8]: 78.2%
- viability, T/C (second compound 0.316 µM, first compound 3.16 µM): 22.5%
- viability, T/C (second compound 0.316 µM, first compound 10 µM): 0.21%
- viability, T/C [9]: 67.8%
- viability, T/C [10]: 68.3%
- viability, T/C [11]: 71.7%
- viability, T/C [12]: 78%
- viability, T/C (second compound 1 µM, first compound 3.16 µM): 27.1%
- viability, T/C (second compound 1 µM, first compound 10 µM): 0.27%
- viability, T/C [13]: 62.4%
- viability, T/C [14]: 59%
- viability, T/C [15]: 58.3%
- viability, T/C [16]: 65.6%
- viability, T/C (second compound 3.16 µM, first compound 3.16 µM): 21.6%
- viability, T/C (second compound 3.16 µM, first compound 10 µM): 0.19%
- viability, T/C [17]: 49.8%
- viability, T/C [18]: 58.4%
- viability, T/C [19]: 52.4%
- viability, T/C [20]: 49.9%
- viability, T/C (second compound 10 µM, first compound 3.16 µM): 12.1%
- viability, T/C (second compound 10 µM, first compound 10 µM): 0.19%

SMILES: CCN(c1cc(-c2ccc(CN3CCOCC3)cc2)cc(C(=O)NCc2c(C)cc(C)[nH]c2=O)c1C)C1CCOCC1 + NC1CC1c1ccc(-c2cccc(O)c2)cc1
- IC50 (second compound 0.1 µM): 1080 nM
- IC50 (second compound 0.316 µM): 1020 nM
- IC50 (second compound 1 µM): 1100 nM
- IC50 (second compound 3.16 µM): 1070 nM
- IC50 (second compound 10 µM): 763 nM
- viability, T/C [21]: 77.2%
- viability, T/C [22]: 79.2%
- viability, T/C [23]: 81.9%
- viability, T/C [24]: 77.1%
- viability, T/C [25]: 53.5%
- viability, T/C [26]: 22.1%
- viability, T/C [27]: 69.5%
- viability, T/C [28]: 82.7%
- viability, T/C [29]: 77.5%
- viability, T/C [30]: 71.7%
- viability, T/C [31]: 51.9%
- viability, T/C [32]: 21.7%
- viability, T/C [33]: 68.6%
- viability, T/C [34]: 72%
- viability, T/C [35]: 68.8%
- viability, T/C [36]: 68.4%
- viability, T/C [37]: 54.5%
- viability, T/C [38]: 19.4%
- viability, T/C [39]: 70.7%
- viability, T/C [40]: 75.3%
- viability, T/C [41]: 70.2%
- viability, T/C [42]: 64.5%
- viability, T/C [43]: 54.1%
- viability, T/C [44]: 22.3%
- viability, T/C [45]: 62.7%
- viability, T/C [46]: 62.5%
- viability, T/C [47]: 62.5%
- viability, T/C [48]: 60.2%
- viability, T/C [49]: 47.6%
- viability, T/C [50]: 21.8%

SMILES: COc1cc(Nc2ncc3c(n2)-c2ccc(Cl)cc2C(c2c(F)cccc2OC)=NC3)ccc1C(=O)O + NC1CC1c1ccc(-c2cccc(O)c2)cc1
- IC50 (second compound 0.1 µM): < 3.16 nM
- IC50 (second compound 0.316 µM): < 3.16 nM
- IC50 (second compound 1 µM): < 3.16 nM
- IC50 (second compound 3.16 µM): < 3.16 nM
- IC50 (second compound 10 µM): < 3.16 nM
- viability, T/C [51]: 36.8%
- viability, T/C [52]: 40.9%
- viability, T/C [1]: 37.5%
- viability, T/C [2]: 31.9%
- viability, T/C [3]: 24.1%
- viability, T/C [4]: 16.4%
- viability, T/C [53]: 39.2%
- viability, T/C [54]: 44.5%
- viability, T/C [5]: 37.5%
- viability, T/C [6]: 31.4%
- viability, T/C [7]: 24.8%
- viability, T/C [8]: 16.5%
- viability, T/C [55]: 37.2%
- viability, T/C [56]: 35.9%
- viability, T/C [9]: 34.6%
- viability, T/C [10]: 26%
- viability, T/C [11]: 20.2%
- viability, T/C [12]: 15.9%
- viability, T/C [57]: 30.4%
- viability, T/C [58]: 36.5%
- viability, T/C [13]: 35.2%
- viability, T/C [14]: 28.1%
- viability, T/C [15]: 23.7%
- viability, T/C [16]: 15%
- viability, T/C [59]: 34.2%
- viability, T/C [60]: 32.7%
- viability, T/C [17]: 34.2%
- viability, T/C [18]: 28%
- viability, T/C [19]: 19.4%
- viability, T/C [20]: 14.9%

SMILES: Cn1ncnc1C1c2n[nH]c(=O)c3cc(F)cc(c23)NC1c1ccc(F)cc1 (stereo not given) + NC1CC1c1ccc(-c2cccc(O)c2)cc1
- IC50 (second compound 0.1 µM): > 100 nM
- IC50 (second compound 0.316 µM): > 100 nM
- IC50 (second compound 1 µM): > 100 nM
- IC50 (second compound 3.16 µM): > 100 nM
- IC50 (second compound 10 µM): 6.46 nM
- viability, T/C (second compound 0.1 µM, first compound 0.000316 µM): 87.2%
- viability, T/C (second compound 0.1 µM, first compound 0.001 µM): 83.4%
- viability, T/C [51]: 76.7%
- viability, T/C [52]: 71.2%
- viability, T/C [1]: 67.3%
- viability, T/C [2]: 65.5%
- viability, T/C (second compound 0.316 µM, first compound 0.000316 µM): 71%
- viability, T/C (second compound 0.316 µM, first compound 0.001 µM): 75%
- viability, T/C [53]: 67%
- viability, T/C [54]: 63.4%
- viability, T/C [5]: 57.8%
- viability, T/C [6]: 62.2%
- viability, T/C (second compound 1 µM, first compound 0.000316 µM): 72.2%
- viability, T/C (second compound 1 µM, first compound 0.001 µM): 62.8%
- viability, T/C [55]: 67.3%
- viability, T/C [56]: 58.1%
- viability, T/C [9]: 64%
- viability, T/C [10]: 60.3%
- viability, T/C (second compound 3.16 µM, first compound 0.000316 µM): 69.2%
- viability, T/C (second compound 3.16 µM, first compound 0.001 µM): 64.2%
- viability, T/C [57]: 59.7%
- viability, T/C [58]: 54.5%
- viability, T/C [13]: 50.5%
- viability, T/C [14]: 52.5%
- viability, T/C (second compound 10 µM, first compound 0.000316 µM): 51.9%
- viability, T/C (second compound 10 µM, first compound 0.001 µM): 58%
- viability, T/C [59]: 51.9%
- viability, T/C [60]: 48.3%
- viability, T/C [17]: 43.6%
- viability, T/C [18]: 43.6%

SMILES: NS(=O)(=O)OCC1CC(n2ccc3c(NC4CCc5ccccc54)ncnc32)CC1O (stereo not given) + NC1CC1c1ccc(-c2cccc(O)c2)cc1
- IC50 (second compound 0.1 µM): 17.4 nM
- IC50 (second compound 0.316 µM): 17.3 nM
- IC50 (second compound 1 µM): 17.4 nM
- IC50 (second compound 3.16 µM): 17.9 nM
- IC50 (second compound 10 µM): 16.4 nM
- viability, T/C [21]: 87.4%
- viability, T/C [22]: 16.4%
- viability, T/C [23]: 5.35%
- viability, T/C [24]: 2.15%
- viability, T/C [25]: 2.62%
- viability, T/C [26]: 1.96%
- viability, T/C [27]: 86.8%
- viability, T/C [28]: 16%
- viability, T/C [29]: 5.14%
- viability, T/C [30]: 2.21%
- viability, T/C [31]: 1.99%
- viability, T/C [32]: 2.75%
- viability, T/C [33]: 89.1%
- viability, T/C [34]: 14.7%
- viability, T/C [35]: 4.08%
- viability, T/C [36]: 2.39%
- viability, T/C [37]: 2.73%
- viability, T/C [38]: 2.93%
- viability, T/C [39]: 91%
- viability, T/C [40]: 16.4%
- viability, T/C [41]: 5.76%
- viability, T/C [42]: 2.49%
- viability, T/C [43]: 3.17%
- viability, T/C [44]: 2.38%
- viability, T/C [45]: 76.1%
- viability, T/C [46]: 21.5%
- viability, T/C [47]: 5.5%
- viability, T/C [48]: 2.88%
- viability, T/C [49]: 2.28%
- viability, T/C [50]: 2.43%
